From ChEMBL document CHEMBL1811855, “Xylarenones C-E from an endophytic fungus isolated from Alibertia macrophylla” (J Nat Prod, 2011)

What was measured:
[1] = Inhibition of pepsin from porcine gastric mucosa using Arg-Glu-(EDANS)- Ser-Gln-Asn-Tyr-Pro-Ile-Val-Gln-Lys-(DALBCYL)-Arg fluorogenic substrate preincubated for 1 hr measured after 1 hr at 1 min interval by fluorescence assay; design: species or system Sus scrofa
[2] = target: T1, Proprotein convertase subtilisin/kexin type 7 (Homo sapiens) (UniProt Q16549); test: Inhibition of recombinant type 8 subtilisin using Arg-Glu-(EDANS)- Ser-Gln-Asn-Tyr-Pro-Ile-Val-Gln-Lys-(DALBCYL)-Arg fluorogenic substrate at 0.001 ug/ml preincubated for 1 hr measured after 1 hr at 1 min interval by fluorescence assay
T1 sequence (whole entry): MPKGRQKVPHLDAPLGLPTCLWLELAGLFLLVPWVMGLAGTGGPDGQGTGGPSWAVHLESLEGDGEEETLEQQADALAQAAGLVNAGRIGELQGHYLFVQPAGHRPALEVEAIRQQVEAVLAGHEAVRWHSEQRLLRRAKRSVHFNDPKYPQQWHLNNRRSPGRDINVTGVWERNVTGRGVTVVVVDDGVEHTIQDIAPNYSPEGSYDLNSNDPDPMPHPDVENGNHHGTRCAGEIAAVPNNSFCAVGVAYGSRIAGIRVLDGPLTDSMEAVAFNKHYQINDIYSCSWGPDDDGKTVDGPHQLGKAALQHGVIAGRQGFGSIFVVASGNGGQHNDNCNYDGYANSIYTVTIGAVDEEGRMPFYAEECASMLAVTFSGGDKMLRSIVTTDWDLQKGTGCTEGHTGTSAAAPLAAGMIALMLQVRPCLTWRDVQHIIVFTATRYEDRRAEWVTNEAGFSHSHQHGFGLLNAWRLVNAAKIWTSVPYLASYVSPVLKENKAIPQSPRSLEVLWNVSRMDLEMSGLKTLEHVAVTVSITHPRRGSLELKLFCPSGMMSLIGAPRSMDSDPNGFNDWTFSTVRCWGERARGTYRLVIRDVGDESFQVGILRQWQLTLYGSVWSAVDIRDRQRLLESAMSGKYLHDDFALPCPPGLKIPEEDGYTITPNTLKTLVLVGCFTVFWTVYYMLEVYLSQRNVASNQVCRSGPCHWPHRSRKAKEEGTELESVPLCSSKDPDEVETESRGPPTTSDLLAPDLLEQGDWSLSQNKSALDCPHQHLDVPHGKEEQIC

[3] = target: T1, Proprotein convertase subtilisin/kexin type 7 (Homo sapiens); test: Inhibition of recombinant type 8 subtilisin using Arg-Glu-(EDANS)- Ser-Gln-Asn-Tyr-Pro-Ile-Val-Gln-Lys-(DALBCYL)-Arg fluorogenic substrate at 0.1 ug/ml preincubated for 1 hr measured after 1 hr at 1 min interval by fluorescence assay
[4] = target: T1, Proprotein convertase subtilisin/kexin type 7 (Homo sapiens); test: Inhibition of recombinant type 8 subtilisin using Arg-Glu-(EDANS)- Ser-Gln-Asn-Tyr-Pro-Ile-Val-Gln-Lys-(DALBCYL)-Arg fluorogenic substrate at 1 ug/ml preincubated for 1 hr measured after 1 hr at 1 min interval by fluorescence assay
[5] = target: T1, Proprotein convertase subtilisin/kexin type 7 (Homo sapiens); test: Inhibition of recombinant type 8 subtilisin using Arg-Glu-(EDANS)- Ser-Gln-Asn-Tyr-Pro-Ile-Val-Gln-Lys-(DALBCYL)-Arg fluorogenic substrate at 0.01 ug/ml preincubated for 1 hr measured after 1 hr at 1 min interval by fluorescence assay

Structure (SMILES) | IC50 [1] [µM] | inhibition [2] [%] | inhibition [3] [%] | inhibition [4] [%] | inhibition [5] [%]
CC(=O)CC(c1ccccc1)c1c(O)c2ccccc2oc1=O (stereo not drawn) [WARFARIN] | 0.00832 |  |  |  | 
C=C(CO)[C@@]12O[C@@H]1[C@@]1(C)C(=CC2=O)[C@H](OC(=O)C(O)(CO)CC(C)CC(C)CC)CC[C@@H]1C (stereo partly drawn) [XYLARENONE D] | 115 | < 10 | < 10 | < 10 | < 10
C=C(CO)[C@@]12O[C@@H]1[C@@]1(C)C(=CC2=O)[C@H](OC(=O)C(O)(CO)CC(C)CC(C)C(C)O)CC[C@@H]1C (stereo partly drawn) [XYLARENONE E] | 127 | < 10 | < 10 | < 10 | < 10

The remaining lines, values ahead:

IC50 [1] [µM] | inhibition [2] [%] | inhibition [3] [%] | inhibition [4] [%] | inhibition [5] [%] | Structure (SMILES)
4.57 |  |  |  |  | O=c1oc2ccccc2c(O)c1Cc1c(O)c2ccccc2oc1=O [DICUMAROL]
2.43 | < 10 | < 10 | < 10 | < 10 | C=C(CO)[C@@]12O[C@@H]1[C@@]1(C)C(=CC2=O)[C@H](O)CC[C@@H]1C [XYLARENONE A]
0.288 |  |  |  |  | C=C(CO)[C@@]12O[C@@H]1[C@@]1(C)C(=CC2=O)[C@H](OC(=O)C(C)CC(C)CC(C)CC)CC[C@@H]1C (stereo partly drawn) [XYLARENONE C]
